How the values were obtained:
human CYP11B2 = target: T1, human CYP11B2 (Homo sapiens, UniProt P19099); assay: G-402 cellular enzyme assay, human CYP11B2 (aldosterone release, HTRF); type: cell-based; settings: G-402 cells, 1 μM Deoxycorticosterone
T1 construct: expressed in transfected cells
T1 sequence (P19099 25-503): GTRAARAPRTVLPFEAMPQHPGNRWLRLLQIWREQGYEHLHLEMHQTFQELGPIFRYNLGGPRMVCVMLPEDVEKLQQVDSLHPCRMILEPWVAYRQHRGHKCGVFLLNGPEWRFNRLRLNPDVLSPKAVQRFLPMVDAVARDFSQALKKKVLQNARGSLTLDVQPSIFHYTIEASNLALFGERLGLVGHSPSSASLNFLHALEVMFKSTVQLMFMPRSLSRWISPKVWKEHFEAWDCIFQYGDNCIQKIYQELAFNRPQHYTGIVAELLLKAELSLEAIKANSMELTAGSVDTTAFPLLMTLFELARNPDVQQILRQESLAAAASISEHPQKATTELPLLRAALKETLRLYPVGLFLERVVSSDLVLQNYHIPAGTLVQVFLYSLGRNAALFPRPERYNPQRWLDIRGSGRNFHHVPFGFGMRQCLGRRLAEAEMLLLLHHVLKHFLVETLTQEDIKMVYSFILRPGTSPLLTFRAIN
Procedure, shortened: (§1)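 Steroid output from supernatants, quantified by HTRF as cortisol for CYP11B1 or aldosterone for CYP11B2, gave EC50 values by least-squares 4-parameter MMF fitting against inhibitor concentration. Stably transfected G-402 cells carrying the human enzyme received 1 μM deoxycortisol or 1 μM deoxycorticosterone respectively, 16 h, DMEM/F12 with 2.5% charcoal-stripped FCS.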

human CYP11B1 = target: T2, human CYP11B1 (Homo sapiens, UniProt P15538); assay: G-402 cellular enzyme assay, human CYP11B1 (cortisol release, HTRF); type: cell-based; settings: G-402 cells, 1 μM Deoxycortisol
T2 construct: expressed in transfected cells
T2 sequence (P15538 25-503): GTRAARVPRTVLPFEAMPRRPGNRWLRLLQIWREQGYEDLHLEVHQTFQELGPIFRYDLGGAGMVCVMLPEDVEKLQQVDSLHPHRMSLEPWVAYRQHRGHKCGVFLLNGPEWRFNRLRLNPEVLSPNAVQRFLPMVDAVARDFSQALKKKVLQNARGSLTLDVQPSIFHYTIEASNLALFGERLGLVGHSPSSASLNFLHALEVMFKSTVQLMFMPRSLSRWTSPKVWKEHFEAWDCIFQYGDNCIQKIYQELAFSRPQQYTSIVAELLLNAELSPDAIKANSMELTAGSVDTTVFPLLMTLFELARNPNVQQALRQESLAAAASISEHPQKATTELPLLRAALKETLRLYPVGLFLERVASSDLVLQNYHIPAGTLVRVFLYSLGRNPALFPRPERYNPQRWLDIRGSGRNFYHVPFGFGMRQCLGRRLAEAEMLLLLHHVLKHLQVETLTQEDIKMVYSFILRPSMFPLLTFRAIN
Procedure, shortened: as §1

Compound | EC50 (human CYP11B2) | EC50 (human CYP11B1)
Cc1c(-c2cncc(N3CCc4cc(Cl)ccc4C3=O)c2)cnn1C [Example 423, 6-Chloro-2-[5-(1,5-dimethyl-1H-pyrazol-4-yl)-pyridin-3-yl]-3,4-dihydro-2H-isoquinolin-1-one] | 63.7 nM | 1020 nM
O=C(Cc1cncc(N2CCc3cc(Cl)ccc3C2=O)c1)NCCO [Example 264, 2-[5-(6-Chloro-1-oxo-3,4-dihydro-4H-isoquinolin-2-yl)-pyridin-3-yl]-N-(2-hydroxy-ethyl)-acetamide] | 843 nM | 4190 nM
CCC(=O)NC1CCCc2c1cncc2N1CCc2cc(Cl)ccc2C1=O (stereo not shown) [Example 29, N-(6-Chloro-1-oxo-3,4,5′,6′,7′,8′-hexahydro-1H-[2,4′]biisoquinolinyl-8′-yl)-propionamide] | 318 nM | 12900 nM
CC(=O)N1CCC(Oc2cncc(N3C(=O)c4ccc(Cl)cc4C3(C)C)c2)CC1 [Example 449, 2-[5-(1-Acetyl-piperidin-4-yloxy)-pyridin-3-yl]-5-chloro-3,3-dimethyl-2,3-dihydro-isoindol-1-one] | 2.8 nM | 235 nM
O=C1c2ccc(Cl)cc2CCN1c1cncc(-c2cccc(F)c2)c1 [Example 231, 6-Chloro-2-[5-(3-fluoro-phenyl)-pyridin-3-yl]-3,4-dihydro-2H-isoquinolin-1-one] | 23.3 nM | 469 nM
CC[C@@H]1c2cc(Cl)ccc2C(=O)N1c1cncc2c1CCC[C@H]2NS(C)(=O)=O (single isomer, unassigned) [Example 347, N-[(R or S)-4-((R or S)-5-Chloro-3-ethyl-1-oxo-1,3-dihydro-isoindol-2-yl)-5,6,7,8-tetrahydro-isoquinolin-8-yl]-methanesulfonamide] | 162 nM | 22900 nM
CS(=O)(=O)NCc1cncc(N2C(=O)c3cc(F)ccc3C23CC3)c1 [Example 401, N-{[5-(5′-Fluoro-3′-oxospiro [cyclopropane-1,1′-isoindol]-2′(3′H)-yl)pyridin-3-yl]methyl} methane-sulfonamide] | 360 nM | 9100 nM
CCC(=O)N[C@@H]1CCCc2c1cncc2N1C(=O)c2ccc(Cl)cc2[C@@H]1C (single isomer, unassigned) [Example 359, N-[(R or S)-4-((S or R)-5-Chloro-3-methyl-1-oxo-1,3-dihydro-isoindol-2-yl)-5,6,7,8-tetrahydro-isoquinolin-8-yl]-propionamide] | 6 nM | 411 nM
O=C1c2cc(F)c(Cl)cc2CCN1c1cccnc1 [Example 101, 6-Chloro-7-fluoro-2-pyridin-3-yl-3,4-dihydro-2H-isoquinolin-1-one] | 104 nM | 3540 nM
CC1(C)c2cc(Cl)ccc2C(=O)N1c1cncc(CNC(=O)c2cccnc2Cl)c1 [Example 433, 2-Chloro-N-[5-(6-chloro-1,1-dimethyl-3-oxo-1,3-dihydro-isoindol-2-yl)-pyridin-3-ylmethyl]-nicotinamide] | 14.3 nM | 1310 nM
CCC1c2cc(Cl)ccc2C(=O)N1c1cncc(-c2ccnn2C)c1 (single isomer, unassigned) [Example 429, (S or R)-5-Chloro-3-ethyl-2-[5-(2-methyl-2H-pyrazol-3-yl)-pyridin-3-yl]-2,3-dihydro-isoindol-1-one] | 4.3 nM | 57.7 nM
C[C@@H](O)c1cncc(N2CCc3cc(Cl)ccc3C2=O)c1 [Example 14, 6-Chloro-2-[5-((R)-1-hydroxy-ethyl)-pyridin-3-yl]-3,4-dihydro-2H-isoquinolin-1-one] | 55 nM | 1100 nM
Cn1ncc2c(N3CCc4cc(Cl)ccc4C3=O)cncc21 [Example 27, 6-Chloro-2-(1-methyl-1H-pyrazolo[3,4-c]pyridin-4-yl)-3,4-dihydro-2H-isoquinolin-1-one] | 75.3 nM | 731 nM
CC1c2cc(Cl)ccc2C(=O)N1c1cncc(F)c1 (stereo not shown) [Example 123, 5-Chloro-2-(5-fluoro-pyridin-3-yl)-3-methyl-2,3-dihydro-isoindol-1-one] | 122 nM | 7730 nM
O=C1c2ccc(Cl)cc2CCN1c1cncc(-c2cc(F)cc(F)c2)c1 [Example 233, 6-Chloro-2-[5-(3,5-difluoro-phenyl)-pyridin-3-yl]-3,4-dihydro-2H-isoquinolin-1-one] | 271 nM | 21600 nM
O=C1c2ccc(Cl)cc2CCN1c1cncc(CNc2cc[nH]n2)c1 [Example 262, 6-Chloro-2-{5-[(1H-pyrazol-3-ylamino)-methyl]-pyridin-3-yl}-3,4-dihydro-2H-isoquinolin-1-one] | 14.1 nM | 300 nM
CCC(=O)NCc1cncc(N2C(=O)c3ccc(Cl)cc3C2(C)C)c1 [Example 397, N-[5-(6-Chloro-1,1-dimethyl-3-oxo-1,3-dihydro-isoindol-2-yl)-pyridin-3-ylmethyl]-propionamide] | 282 nM | 7950 nM
O=c1c2ccc(Cl)cc2ccn1-c1cccnc1 [Example 53, 6-Chloro-2-pyridin-3-yl-2H-isoquinolin-1-one] | 120 nM | 10800 nM
O=C(Nc1ccccc1)c1cncc(N2CCc3cc(Cl)ccc3C2=O)c1 [Example 46, 5-(6-Chloro-1-oxo-3,4-dihydro-1H-isoquinolin-2-yl)-N-phenyl-nicotinamide] | 698 nM | 13900 nM
O=C1c2ccc(Cl)cc2CCN1c1cnccc1C(F)(F)F [Example 22, 6-Chloro-2-(4-trifluoromethyl-pyridin-3-yl)-3,4-dihydro-2H-isoquinolin-1-one] | 55.7 nM | 517 nM
CCc1ccc(C(O)c2cncc(N3CCc4cc(Cl)ccc4C3=O)c2)cc1 (stereo not shown) [Example 33, 6-Chloro-2-{5-[(4-ethyl-phenyl)-hydroxy-methyl]-pyridin-3-yl}-3,4-dihydro-2H-isoquinolin-1-one] | 210 nM | 485 nM
CC(c1cncc(N2CCc3cc(Cl)ccc3C2=O)c1)n1ccnc1 (stereo not shown) [Example 270, 6-Chloro-2-[5-(1-imidazol-1-yl-ethyl)-pyridin-3-yl]-3,4-dihydro-2H-isoquinolin-1-one] | 6.3 nM | 27.9 nM
CCS(=O)(=O)NCc1cncc(N2C(=O)c3ccc(C#N)cc3C2(C)C)c1 [Example 389, Ethanesulfonic acid [5-(6-cyano-1,1-dimethyl-3-oxo-1,3-dihydro-isoindol-2-yl)-pyridin-3-ylmethyl]-amide] | 115 nM | 2950 nM
CC(c1cncc(N2CCc3cc(Cl)ccc3C2=O)c1)N1CCOC1=O (stereo not shown) [Example 275, 6-Chloro-2-{5-[1-(2-oxo-oxazolidin-3-yl)-ethyl]-pyridin-3-yl}-3,4-dihydro-2H-isoquinolin-1-one] | 731 nM | 7820 nM
O=C1CCCN1Cc1cncc(N2CCc3cc(Cl)ccc3C2=O)c1 [Example 155, 6-Chloro-2-[5-(2-oxo-pyrrolidin-1-ylmethyl)-pyridin-3-yl]-3,4-dihydro-2H-isoquinolin-1-one] | 132 nM | 4090 nM
CC[C@H]1c2cc(Cl)ccc2C(=O)N1c1cncc2c1CCC[C@H]2NS(C)(=O)=O (single isomer, unassigned) [Example 350, N-[(R or S)-4-((S or R)-5-Chloro-3-ethyl-1-oxo-1,3-dihydro-isoindol-2-yl)-5,6,7,8-tetrahydro-isoquinolin-8-yl]-methanesulfonamide] | 59.4 nM | 3680 nM
CC(=O)N1CC[C@@H](Oc2cncc(N3C(=O)c4ccc(Cl)cc4C3(C)C)c2)C1 [Example 442, 2-[5-((R)-1-Acetyl-pyrrolidin-3-yloxy)-pyridin-3-yl]-5-chloro-3,3-dimethyl-2,3-dihydro-isoindol-1-one] | 5.6 nM | 427 nM
CCC(=O)N1CCN(c2cncc(N3C(=O)c4ccc(Cl)cc4C3(C)C)c2)CC1 [Example 456, 5-Chloro-3,3-dimethyl-2-[5-(4-propionyl-piperazin-1-yl)-pyridin-3-yl]-2,3-dihydro-isoindol-1-one] | 1.2 nM | 106 nM
CC1(C)c2cc(Cl)ccc2C(=O)N1c1cncc(Cn2ccc(N)n2)c1 [Example 380, 2-[5-(3-Amino-pyrazol-1-ylmethyl)-pyridin-3-yl]-5-chloro-3,3-dimethyl-2,3-dihydro-isoindol-1-one] | 36.6 nM | 2420 nM

From patent US9133158B2, “Bicyclic dihydroisoquinoline-1-one derivatives” (Hoffmann-La Roche Inc., priority 2011, dated 2015)
